The values below come from US10183917B2, “Tricyclic compounds and uses thereof in medicine” (Sunshine Lake Pharma Co., Ltd., priority 2015, dated 2019).

Data set [1] deals with nuclear receptor FXR recombinant protein (Homo sapiens (Human), UniProt Q96RI1). The data set is described as follows: TR-FRET Farnesoid X Receptor Coactivator Assay. The data set is classed as biochemical. The following applies: Fluorescein-SRC2-2, Tb anti-GST antibody, 1 h room temperature. The protocol: Example 36: TR-FRET Farnesoid X Receptor Coactivator Assay
Purchasing invitrogen PV4833 kits.
First, the required amount of the compound was weighed and dissolved in 100% DMSO at the maximum concentration of 3000 μM. The solution at the maximum concentration was diluted by 3-fold serial dilution in DMSO to get 10 concentrations;
Second, the above prepared solutions of different concentrations were diluted to 100-fold with a buffer supplied with the kit, followed by mixing and then 10 μL of the diluted solution was added to a 384 well plate;
Third, nuclear receptor FXR recombinant protein was diluted with a buffer to give a concentration of 4×, and 5 μL of the diluent was added to the 384 well plate of second step;
Fourth, Fluorescein-SRC2-2 and Tb anti-GST antibody were diluted with a buffer to give a concentration of 4× respectively. Then two reagents were mixed together, and 10 μL of the mixture was added to the 384 well plate of third step;
Finally, the solution of the 384 well above was mixed uniformly by centrifuging, and then incubated at room temperature for 1 h. Then the TR-FRET Endpoint was used for measuring the solution at wavelengths of 520 nm, 495 nm and 337 nm. EC50 values were calculated according to the measured value of ER=520 nm/495 nm.
In general terms: In TR-FRET formats the signal depends on donor and acceptor labels being close together.

Data set [2] in a line: Pharmacokinetics test in SD rats (iv and po). The data set is classed as in vivo. The protocol:
Example 37: Pharmacokinetics Test
Experimental animals: six healthy adult male SD rats (purchased from Hunan Slack King of Laboratory Animal Co. Ltd.) were divided into two groups, three rats in each group, and the two grops were given intravenous injection and oral administration respectively.
Drug preparation: a quantity of a compound of the present invention was weighed, and 5% DMSO, 10% Kolliphor HS15 and 85% saline (0.9%) were added to give target concentrations of the compound solution.
Administration and sample collection: animals were fasting for 12 h until administered, eating 3 h after the administration. Hind legs of SD rats of one group were given intravenous injection (IV, 1 mg/kg) and SD rats of the other group were given oral administration (PO, 5 mg/kg) respectively. Then blood was collected in the rat tail vein at the time point 0, 0.083, 0.25, 0.5, 1, 2, 4, 6, 8, 24 h respectively, and the blood volume was about 200-400 μL/time points. After the collection of whole blood at each time point, the colleted blood was set in K2EDTA anticoagulant tube, and the tube was placed in the incubator with ice packs. All samples were centrifuged for 5 min at 4° C. at 4600 r/min within 15 min. Plasma was separated and colleted. The concentrations of different compounds in the plasma of the rats after adminstration were measured using LC/MS/MS method, and the pharmacokinetic parameters were calculated according to the curve of the drug concentration-time.
Pharmacokinetic properties of the compounds of the present invention were tested by the experiment above, and the pharmacokinetic parameters were shown in Table 3.

[3] abbreviates: male, SD, rat, in vivo, iv, 1 mg/kg.
The mark [4] stands for this setting: male, SD, rat, in vivo, po, 5 mg/kg.

Chain of nuclear receptor FXR recombinant protein (Q96RI1 258-486, other chains not shown): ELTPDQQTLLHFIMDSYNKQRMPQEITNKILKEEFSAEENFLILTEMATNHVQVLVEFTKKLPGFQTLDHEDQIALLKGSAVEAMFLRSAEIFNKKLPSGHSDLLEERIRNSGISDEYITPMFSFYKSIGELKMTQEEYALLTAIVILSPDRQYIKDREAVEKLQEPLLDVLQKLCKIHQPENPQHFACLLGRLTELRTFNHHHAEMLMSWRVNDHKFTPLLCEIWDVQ

Take `O=C(O)c1ccc2c(c1)Oc1ccc(OCc3c(-c4c(Cl)cccc4Cl)noc3C3CC3)cc1CC2` [Example 1, 8-((5-cyclopropyl-3-(2,6-dichlorophenyl)isoxazol-4-yl)methoxy)-10,11-dihydrodibenzo[b,f]oxepine-3-carboxylic acid]: in data set [1], the concentration giving a half-maximal response (EC50) (commonly the concentration needed to bring the measured effect to its halfway point) was found to be 18 nM.
Take `O=C(O)c1ccc2c(c1)C(=O)c1ccc(OCc3c(-c4c(Cl)cccc4Cl)noc3C3CC3)cc1CC2` [Example 2, 8-((5-cyclopropyl-3-(2,6-dichlorophenyl)isoxazol-4-yl)methoxy)-5-oxo-10,11-dihydro-5H-dibenzo[a,d][7]annulene-3-carboxylic acid]: the concentration for a half-maximal effect (EC50) in data set [1] was 4 nM. For the same compound, in data set [2] (male SD rats, iv 1 mg/kg), the AUCINF is 1210 ng·h/mL; the AUClast was determined as 1180 ng·h/mL; the Cl stood at 14 mL/min/kg; the highest concentration (Cmax) – broadly, the highest concentration seen after dosing – is 2560 ng/mL. Further, in data set [2] (male SD rats, iv 1 mg/kg), the MRTINF is on record as 1.05 h; the T1/2 worked out at 1.82 h; the Tmax (as a rule, the time from dosing to the highest level) was determined as 4.8 min; the Vss came out at 0.86 L/kg. In data set [2] (male SD rats, po 5 mg/kg), this compound had an AUCINF of 11300 ng·h/mL, an AUClast of 11200 ng·h/mL, a Cmax of 9970 ng/mL and an MRTINF of 2.35 h. In data set [2] (male SD rats, po 5 mg/kg), the T1/2 came to 4.16 h and the Tmax was determined as 19.8 min. Besides, the F in data set [2] (male SD rats, po 5 mg/kg vs iv 1 mg/kg) was 189.7%.
Regarding `O=C(O)c1ccc2c(c1)Oc1ccc(OCc3c(-c4c(Cl)cccc4Cl)noc3C3CC3)nc1CC2` [Example 3, 2-((5-cyclopropyl-3-(2,6-dichlorophenyl)isoxazol-4-yl)methoxy)-10,11-dihydrobenzo[6,7]oxepino[3,2-b]pyridine-7-carboxylic acid], the EC50 in data set [1] was determined as 37 nM.
`O=C(O)c1ccc2c(c1)Oc1cnc(OCc3c(-c4c(Cl)cccc4Cl)noc3C3CC3)cc1CC2` [Example 4, 3-((5-cyclopropyl-3-(2,6-dichlorophenyl)isoxazol-4-yl)methoxy)-5,6-dihydrobenzo[6,7]oxepino[2,3-c]pyridine-9-carboxylic acid]: in data set [1], the EC50 was 46 nM. In data set [2] (male, SD, rat, in vivo), this compound came in with an F of 44.7%. In data set [2] (setting [3]), the AUC(0-inf) (as a rule, the area under the concentration-time curve extrapolated to infinity) was determined as 878 ng·h/mL; the area under the curve AUC(0-t) – broadly, the area under the concentration-time curve up to a stated or last time point – was 877 ng·h/mL; the highest concentration (Cmax) turned out to be 1900 ng/mL; the MRT inf (as a rule, the average time that molecules of a dose stay in the body) was 0.4 h. Moreover, in data set [2] (setting [3]), the Tmax came out at 4.8 min; the Vd stood at 0.45 L/kg; the clearance was 19 mL/min/kg; the half-life (in general, the time in which the quantity being followed falls by half) was 30 min. In data set [2] (setting [4]), the total exposure AUC(0-inf) is 1980 ng·h/mL, the AUC(0-t) came to 1960 ng·h/mL, the Cmax is 1800 ng/mL and the mean residence time MRT inf stood at 1.37 h. Also, in data set [2] (setting [4]), the Tmax stood at 19.8 min and the half-life is 294 min.
On to `O=C(O)c1ccc2c(c1)Oc1ccc(OCc3c(-c4c(Cl)cccc4Cl)noc3C3CC3)cc1S(=O)(=O)C2` [Example 5, 8-((5-cyclopropyl-3-(2,6-dichlorophenyl)isoxazol-4-yl)methoxy)-11H-dibenzo[b,f][1,4]oxathiepine-3-carboxylic acid-10,10-dioxide], for which the half-maximal effective concentration (EC50) in data set [1] stood at 6 nM. In addition, the F in data set [2] (male, SD, rat, in vivo) was found to be 62.6%. Further, in data set [2] (setting [3]), the AUC(0-inf) was found to be 941 ng·h/mL, the AUC(0-t) stood at 926 ng·h/mL, the concentration peaked (Cmax) at 2420 ng/mL and the MRT inf amounted to 0.76 h. In data set [2] (setting [3]), the Tmax was 4.8 min, the Vd stood at 0.82 L/kg, the clearance stood at 18 mL/min/kg and the half-life is 93.6 min. Besides, in data set [2] (setting [4]), the total exposure AUC(0-inf) worked out at 3350 ng·h/mL, the area under the curve AUC(0-t) came to 2900 ng·h/mL, the Cmax stood at 1300 ng/mL and the MRT inf amounted to 8.57 h. Moreover, in data set [2] (setting [4]), the Tmax turned out to be 19.8 min and the half-life is 702 min.
`O=C(O)c1ccc2c(c1)Oc1ccc(OCc3c(-c4c(Cl)cccc4Cl)noc3C3CC3)cc1SC2` [Example 6, 8-((5-cyclopropyl-3-(2,6-dichlorophenyl)isoxazol-4-yl)methoxy)-11H-dibenzo [b,f][1,4]oxathiepine-3-carboxylic acid]: the EC50 in data set [1] worked out at 55 nM.
Consider `O=C(O)c1ccc2c(c1)Oc1ccc(OCc3c(-c4c(Cl)cccc4Cl)noc3C3CC3)cc1[S+]([O-])C2` (centres unmarked) [Example 7, 8-((5-cyclopropyl-3-(2,6-dichlorophenyl)isoxazol-4-yl)methoxy)-11H-dibenzo [b,f][1,4]oxathiepine-3-carboxylic acid-10-oxide], for which, in data set [1], the EC50 was 15 nM.
Turning to `O=C(O)c1ccc2c(c1)C1(CC1)c1ccc(OCc3c(-c4c(Cl)cccc4Cl)noc3C3CC3)cc1CC2` [Example 9, 2′-((5-cyclopropyl-3-(2,6-dichlorophenyl)isoxazol-4-yl)methoxy)-10′,11′-dihydrospiro[cyclopropane-1,5′-dibenzo[a,d][7]annulene]-7′-carboxylic acid], the half-maximal effective concentration (EC50) in data set [1] amounted to 38 nM.
On the same count and under the same terms, under `O=C(O)c1ccc2c(c1)S(=O)(=O)c1ccc(OCc3c(-c4c(Cl)cccc4Cl)noc3C3CC3)cc1CC2` [Example 11, 8-((5-cyclopropyl-3-(2,6-dichlorophenyl)isoxazol-4-yl)methoxy)-10,11-dihydrodibenzo[b,f]thiepine-3-carboxylic acid-5,5-dioxide] stands 56 nM; under `O=C(O)c1ccc2c(c1)CCc1ccc(OCc3c(-c4c(Cl)cccc4Cl)noc3C3CC3)cc1O2` [Example 15, 7-((5-cyclopropyl-3-(2,6-dichlorophenyl)isoxazol-4-yl)methoxy)-10,11-dihydrodibenzo[b,f]oxepine-2-carboxylic acid], 35 nM.
The same measure, in the same setting: the figure for `CS(=O)(=O)NC(=O)c1ccc2c(c1)Oc1ccc(OCc3c(-c4c(Cl)cccc4Cl)noc3C3CC3)nc1CC2` [Example 19, 2-((5-cyclopropyl-3-(2,6-dichlorophenyl)isoxazol-4-yl)methoxy)-N-(methylsulfonyl)-10,11-dihydrobenzo[6,7]oxepino[3,2-b]pyridine-7-carboxamide] is 6 nM; for `CC(C)c1nnn(-c2c(Cl)cccc2Cl)c1COc1ccc2c(c1)CCc1ccc(C(=O)O)cc1C2=O` [Example 27, 8-((1-(2,6-dichlorophenyl)-4-isopropyl-1H-1,2,3-triazol-5-yl)methoxy)-5-oxo-10,11-dihydro-5H-dibenzo[a,d][7]annulene-3-carboxylic acid] it is 12 nM; for `O=C(NCCS(=O)(=O)O)c1ccc2c(c1)Oc1ccc(OCc3c(-c4c(Cl)cccc4Cl)noc3C3CC3)nc1CC2` [Example 29, 2-(2-((5-cyclopropyl-3-(2,6-dichlorophenyl)isoxazol-4-yl)methoxy)-10,11-dihydrobenzo[6,7]oxepino[3,2-b]pyridine-7-carboxamido)ethanesulfonic acid] it is 11 nM.
Same read-out and setting: under `O=C(O)c1ccc2c(c1)Oc1ccc(OCc3c(-c4c(Cl)cccc4Cl)noc3C3CC3)nc1C=C2` [Example 30, 2-((5-cyclopropyl-3-(2,6-dichlorophenyl)isoxazol-4-yl)methoxy)benzo[6,7]oxepino[3,2-b]pyridine-7-carboxylic acid] stands 27 nM.
On to `O=C(O)c1ccc2c(c1)Oc1ccc(OCc3c(-c4c(Cl)cccc4Cl)noc3C3CC3)nc1CCC2` [Example 31, 3-((5-cyclopropyl-3-(2,6-dichlorophenyl)isoxazol-4-yl)methoxy)-6,7-dihydro-5H-benzo[7,8]oxocino[3,2-b]pyridine-10-carboxylic acid], for which, in data set [1], the EC50 was 56 nM.
On the same count and under the same terms, under `CS(=O)(=O)c1ccc2c(c1)Oc1ccc(OCc3c(-c4c(Cl)cccc4Cl)noc3C3CC3)nc1CC2` [Example 32, 2-((5-cyclopropyl-3-(2,6-dichlorophenyl)isoxazol-4-yl)methoxy)-7-(methylsulfonyl)-10,11-dihydrobenzo[6,7]oxepino[3,2-b]pyridine] stands 54 nM.
The same measure, in the same setting: under `O=C(O)c1cnc2c(c1)Oc1cnc(OCc3c(-c4c(Cl)cccc4Cl)noc3C3CC3)cc1CC2` [Example 33, 8-((5-cyclopropyl-3-(2,6-dichlorophenyl)isoxazol-4-yl)methoxy)-10,11-dihydrooxepino[3,2-b:7,6-c′]dipyridine-3-carboxylic acid] stands 18 nM.
